Source: ChEMBL document CHEMBL5291721, “A preclinical secondary pharmacology resource illuminates target-adverse drug reaction associations of marketed drugs” (Nat Commun, 2023)

How the values were obtained:
[1] = target: T1, Prostaglandin G/H synthase 1 (Rattus norvegicus, UniProt Q63921); format: functional
T1 sequence (Q63921 whole entry): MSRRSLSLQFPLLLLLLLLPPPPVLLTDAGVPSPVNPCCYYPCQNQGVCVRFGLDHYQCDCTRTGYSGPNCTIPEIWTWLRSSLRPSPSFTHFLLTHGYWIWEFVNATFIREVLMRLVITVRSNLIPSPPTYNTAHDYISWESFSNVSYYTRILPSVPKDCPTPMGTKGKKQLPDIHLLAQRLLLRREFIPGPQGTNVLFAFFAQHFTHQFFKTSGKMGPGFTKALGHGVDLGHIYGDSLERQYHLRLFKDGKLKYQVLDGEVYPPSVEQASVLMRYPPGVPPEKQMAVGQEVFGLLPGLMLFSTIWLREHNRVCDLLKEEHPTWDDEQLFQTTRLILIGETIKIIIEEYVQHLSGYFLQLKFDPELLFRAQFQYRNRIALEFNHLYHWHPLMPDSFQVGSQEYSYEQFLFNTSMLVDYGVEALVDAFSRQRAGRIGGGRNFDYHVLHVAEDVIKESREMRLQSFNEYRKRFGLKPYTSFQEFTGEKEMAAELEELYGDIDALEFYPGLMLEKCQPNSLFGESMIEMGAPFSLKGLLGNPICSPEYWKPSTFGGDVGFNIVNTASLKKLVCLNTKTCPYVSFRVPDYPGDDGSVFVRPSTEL

[2] = target: Voltage-gated inwardly rectifying potassium channel KCNH2 (Homo sapiens, UniProt Q12809); format: functional; conditions: read-out: AC50
[3] = target: T2, Alpha-1A adrenergic receptor (Homo sapiens, UniProt P35348); format: functional, cell-based
T2 sequence (P35348 whole entry): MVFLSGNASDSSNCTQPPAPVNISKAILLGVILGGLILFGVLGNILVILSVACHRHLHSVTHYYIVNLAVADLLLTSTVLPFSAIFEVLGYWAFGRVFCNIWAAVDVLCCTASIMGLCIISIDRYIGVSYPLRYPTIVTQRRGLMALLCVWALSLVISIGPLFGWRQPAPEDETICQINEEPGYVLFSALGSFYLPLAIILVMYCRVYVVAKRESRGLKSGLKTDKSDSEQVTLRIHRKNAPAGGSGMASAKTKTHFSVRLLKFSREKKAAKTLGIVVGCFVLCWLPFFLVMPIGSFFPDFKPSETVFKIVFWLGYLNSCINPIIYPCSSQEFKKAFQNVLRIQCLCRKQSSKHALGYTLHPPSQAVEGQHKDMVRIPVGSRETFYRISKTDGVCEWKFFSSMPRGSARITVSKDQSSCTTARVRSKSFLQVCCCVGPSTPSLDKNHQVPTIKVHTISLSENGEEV

[4] = target: T3, Equilibrative nucleoside transporter 1 (Homo sapiens, UniProt Q99808)
T3 sequence (Q99808 whole entry): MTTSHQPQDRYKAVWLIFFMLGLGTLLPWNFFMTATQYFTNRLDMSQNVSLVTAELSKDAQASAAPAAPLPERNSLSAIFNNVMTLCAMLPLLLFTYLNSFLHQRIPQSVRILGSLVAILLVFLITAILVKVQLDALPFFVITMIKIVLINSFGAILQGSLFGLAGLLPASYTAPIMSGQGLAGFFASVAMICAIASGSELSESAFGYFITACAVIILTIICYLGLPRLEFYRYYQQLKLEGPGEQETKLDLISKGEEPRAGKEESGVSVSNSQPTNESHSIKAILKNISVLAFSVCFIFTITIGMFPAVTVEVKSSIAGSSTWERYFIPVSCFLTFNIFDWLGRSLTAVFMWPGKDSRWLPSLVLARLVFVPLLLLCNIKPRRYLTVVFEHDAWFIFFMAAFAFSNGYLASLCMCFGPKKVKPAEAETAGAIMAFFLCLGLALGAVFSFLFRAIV

[5] = target: Voltage-dependent L-type calcium channel subunit alpha-1C (Rattus norvegicus, UniProt P22002); format: functional
[6] = target: Histamine H3 receptor (Homo sapiens, UniProt Q9Y5N1)
[7] = target: Sodium-dependent dopamine transporter (Homo sapiens, UniProt Q01959)
[8] = target: Motilin receptor (Homo sapiens, UniProt O43193)
[9] = target: T4, Muscarinic acetylcholine receptor M2 (Homo sapiens, UniProt P08172); format: functional, cell-based
T4 sequence (P08172 whole entry): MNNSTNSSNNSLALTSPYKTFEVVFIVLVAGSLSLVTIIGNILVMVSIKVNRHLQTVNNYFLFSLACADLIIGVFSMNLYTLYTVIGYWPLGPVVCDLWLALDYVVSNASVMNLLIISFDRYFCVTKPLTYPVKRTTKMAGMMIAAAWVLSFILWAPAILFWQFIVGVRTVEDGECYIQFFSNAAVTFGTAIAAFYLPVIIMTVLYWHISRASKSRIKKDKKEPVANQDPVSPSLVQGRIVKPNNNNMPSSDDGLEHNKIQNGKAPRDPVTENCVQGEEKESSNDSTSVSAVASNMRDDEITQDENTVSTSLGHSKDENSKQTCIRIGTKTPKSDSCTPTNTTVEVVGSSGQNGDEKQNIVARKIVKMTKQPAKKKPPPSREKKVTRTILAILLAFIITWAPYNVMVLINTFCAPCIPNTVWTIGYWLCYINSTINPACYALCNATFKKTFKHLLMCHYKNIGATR
Further: assay procedure not described here.

Sequence of Voltage-dependent L-type calcium channel subunit alpha-1C (P22002 whole entry): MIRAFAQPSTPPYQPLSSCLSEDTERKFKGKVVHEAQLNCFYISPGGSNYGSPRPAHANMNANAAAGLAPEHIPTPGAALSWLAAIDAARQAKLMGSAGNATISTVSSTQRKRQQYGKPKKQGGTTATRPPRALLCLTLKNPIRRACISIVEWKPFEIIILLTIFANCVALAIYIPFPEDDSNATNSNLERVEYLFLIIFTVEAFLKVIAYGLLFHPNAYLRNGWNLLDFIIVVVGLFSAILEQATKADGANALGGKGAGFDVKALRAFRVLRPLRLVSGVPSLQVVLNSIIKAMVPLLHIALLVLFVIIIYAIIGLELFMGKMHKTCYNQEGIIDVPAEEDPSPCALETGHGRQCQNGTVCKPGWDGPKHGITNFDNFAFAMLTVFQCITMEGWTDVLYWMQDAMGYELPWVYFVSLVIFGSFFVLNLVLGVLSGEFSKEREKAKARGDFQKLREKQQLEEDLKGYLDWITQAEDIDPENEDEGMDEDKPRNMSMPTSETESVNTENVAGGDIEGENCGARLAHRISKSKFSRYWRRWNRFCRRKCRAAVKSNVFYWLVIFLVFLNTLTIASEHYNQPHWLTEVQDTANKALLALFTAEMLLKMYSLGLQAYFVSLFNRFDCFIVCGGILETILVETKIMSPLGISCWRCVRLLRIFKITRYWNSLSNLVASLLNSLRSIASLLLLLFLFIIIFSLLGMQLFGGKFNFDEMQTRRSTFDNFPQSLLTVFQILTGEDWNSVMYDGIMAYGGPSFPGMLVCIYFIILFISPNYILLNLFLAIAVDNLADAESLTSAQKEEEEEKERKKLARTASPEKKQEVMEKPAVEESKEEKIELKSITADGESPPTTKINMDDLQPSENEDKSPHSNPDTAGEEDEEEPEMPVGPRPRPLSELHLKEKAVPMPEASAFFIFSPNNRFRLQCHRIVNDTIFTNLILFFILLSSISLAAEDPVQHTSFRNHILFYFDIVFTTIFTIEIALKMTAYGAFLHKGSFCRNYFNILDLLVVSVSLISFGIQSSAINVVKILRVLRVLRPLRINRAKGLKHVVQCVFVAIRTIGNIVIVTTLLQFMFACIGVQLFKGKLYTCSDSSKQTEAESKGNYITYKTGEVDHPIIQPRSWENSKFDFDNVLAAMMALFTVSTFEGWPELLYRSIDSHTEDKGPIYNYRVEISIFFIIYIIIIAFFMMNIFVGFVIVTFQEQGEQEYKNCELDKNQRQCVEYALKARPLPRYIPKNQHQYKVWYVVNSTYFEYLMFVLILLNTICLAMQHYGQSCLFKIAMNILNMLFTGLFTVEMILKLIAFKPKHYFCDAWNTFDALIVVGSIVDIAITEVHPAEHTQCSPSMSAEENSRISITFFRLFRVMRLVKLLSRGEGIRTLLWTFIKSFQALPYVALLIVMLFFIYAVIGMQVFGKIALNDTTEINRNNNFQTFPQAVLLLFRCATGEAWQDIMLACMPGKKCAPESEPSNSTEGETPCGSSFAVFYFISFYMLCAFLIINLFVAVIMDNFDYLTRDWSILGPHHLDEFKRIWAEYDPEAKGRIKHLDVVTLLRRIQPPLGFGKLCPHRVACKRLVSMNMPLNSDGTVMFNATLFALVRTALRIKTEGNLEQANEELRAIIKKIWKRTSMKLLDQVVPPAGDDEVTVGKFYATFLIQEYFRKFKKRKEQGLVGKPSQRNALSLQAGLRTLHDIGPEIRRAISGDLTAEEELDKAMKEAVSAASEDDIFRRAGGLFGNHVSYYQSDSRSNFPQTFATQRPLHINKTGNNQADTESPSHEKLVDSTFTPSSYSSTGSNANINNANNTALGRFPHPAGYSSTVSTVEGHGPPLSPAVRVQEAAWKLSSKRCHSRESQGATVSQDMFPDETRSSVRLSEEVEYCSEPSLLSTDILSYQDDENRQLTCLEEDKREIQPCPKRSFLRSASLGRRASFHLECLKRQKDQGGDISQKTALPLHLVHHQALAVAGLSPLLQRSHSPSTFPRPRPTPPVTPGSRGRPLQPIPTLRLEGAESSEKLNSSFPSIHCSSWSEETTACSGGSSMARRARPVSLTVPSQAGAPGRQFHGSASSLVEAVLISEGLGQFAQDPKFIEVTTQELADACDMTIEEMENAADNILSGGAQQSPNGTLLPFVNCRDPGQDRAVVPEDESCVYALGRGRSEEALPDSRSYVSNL
Sequence of Sodium-dependent dopamine transporter (Q01959 whole entry): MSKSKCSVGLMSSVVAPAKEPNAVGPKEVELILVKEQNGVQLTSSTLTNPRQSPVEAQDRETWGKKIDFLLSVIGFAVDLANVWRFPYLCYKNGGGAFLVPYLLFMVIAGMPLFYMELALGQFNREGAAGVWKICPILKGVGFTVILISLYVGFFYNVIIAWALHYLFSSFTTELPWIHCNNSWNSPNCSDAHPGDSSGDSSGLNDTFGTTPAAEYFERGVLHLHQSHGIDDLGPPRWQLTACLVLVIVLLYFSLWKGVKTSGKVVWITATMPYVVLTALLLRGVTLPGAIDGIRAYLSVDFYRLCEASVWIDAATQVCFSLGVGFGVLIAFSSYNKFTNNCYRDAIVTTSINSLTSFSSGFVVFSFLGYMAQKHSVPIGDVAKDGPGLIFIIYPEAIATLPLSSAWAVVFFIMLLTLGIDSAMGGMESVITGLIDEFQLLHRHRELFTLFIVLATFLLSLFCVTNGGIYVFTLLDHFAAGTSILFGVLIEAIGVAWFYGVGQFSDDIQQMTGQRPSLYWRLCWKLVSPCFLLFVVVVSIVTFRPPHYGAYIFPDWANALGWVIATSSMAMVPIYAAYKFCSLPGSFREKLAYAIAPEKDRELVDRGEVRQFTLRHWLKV
Sequence of Motilin receptor (O43193 whole entry): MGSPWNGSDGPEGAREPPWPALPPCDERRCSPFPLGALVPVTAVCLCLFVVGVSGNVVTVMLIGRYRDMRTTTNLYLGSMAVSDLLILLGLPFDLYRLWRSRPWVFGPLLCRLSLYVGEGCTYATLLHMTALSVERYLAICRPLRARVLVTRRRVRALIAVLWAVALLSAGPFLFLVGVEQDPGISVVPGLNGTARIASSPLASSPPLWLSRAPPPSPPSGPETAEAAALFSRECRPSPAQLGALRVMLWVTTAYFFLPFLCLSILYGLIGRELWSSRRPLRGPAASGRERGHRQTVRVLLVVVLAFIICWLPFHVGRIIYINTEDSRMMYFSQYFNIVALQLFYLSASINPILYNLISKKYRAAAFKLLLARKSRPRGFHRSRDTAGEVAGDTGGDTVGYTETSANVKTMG
Sequence of Histamine H3 receptor (Q9Y5N1 whole entry): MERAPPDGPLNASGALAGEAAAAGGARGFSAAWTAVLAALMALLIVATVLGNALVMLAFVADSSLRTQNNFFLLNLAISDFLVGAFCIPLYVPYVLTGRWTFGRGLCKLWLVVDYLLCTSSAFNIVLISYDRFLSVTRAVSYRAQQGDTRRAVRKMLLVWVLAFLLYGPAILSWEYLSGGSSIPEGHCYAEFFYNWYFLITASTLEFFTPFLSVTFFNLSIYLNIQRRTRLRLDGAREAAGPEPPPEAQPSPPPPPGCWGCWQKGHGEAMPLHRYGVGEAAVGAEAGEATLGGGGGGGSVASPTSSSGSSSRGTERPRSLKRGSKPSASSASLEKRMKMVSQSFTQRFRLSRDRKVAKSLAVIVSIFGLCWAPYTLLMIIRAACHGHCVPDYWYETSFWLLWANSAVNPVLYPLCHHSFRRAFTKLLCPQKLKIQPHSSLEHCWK
Sequence of Voltage-gated inwardly rectifying potassium channel KCNH2 (Q12809 whole entry): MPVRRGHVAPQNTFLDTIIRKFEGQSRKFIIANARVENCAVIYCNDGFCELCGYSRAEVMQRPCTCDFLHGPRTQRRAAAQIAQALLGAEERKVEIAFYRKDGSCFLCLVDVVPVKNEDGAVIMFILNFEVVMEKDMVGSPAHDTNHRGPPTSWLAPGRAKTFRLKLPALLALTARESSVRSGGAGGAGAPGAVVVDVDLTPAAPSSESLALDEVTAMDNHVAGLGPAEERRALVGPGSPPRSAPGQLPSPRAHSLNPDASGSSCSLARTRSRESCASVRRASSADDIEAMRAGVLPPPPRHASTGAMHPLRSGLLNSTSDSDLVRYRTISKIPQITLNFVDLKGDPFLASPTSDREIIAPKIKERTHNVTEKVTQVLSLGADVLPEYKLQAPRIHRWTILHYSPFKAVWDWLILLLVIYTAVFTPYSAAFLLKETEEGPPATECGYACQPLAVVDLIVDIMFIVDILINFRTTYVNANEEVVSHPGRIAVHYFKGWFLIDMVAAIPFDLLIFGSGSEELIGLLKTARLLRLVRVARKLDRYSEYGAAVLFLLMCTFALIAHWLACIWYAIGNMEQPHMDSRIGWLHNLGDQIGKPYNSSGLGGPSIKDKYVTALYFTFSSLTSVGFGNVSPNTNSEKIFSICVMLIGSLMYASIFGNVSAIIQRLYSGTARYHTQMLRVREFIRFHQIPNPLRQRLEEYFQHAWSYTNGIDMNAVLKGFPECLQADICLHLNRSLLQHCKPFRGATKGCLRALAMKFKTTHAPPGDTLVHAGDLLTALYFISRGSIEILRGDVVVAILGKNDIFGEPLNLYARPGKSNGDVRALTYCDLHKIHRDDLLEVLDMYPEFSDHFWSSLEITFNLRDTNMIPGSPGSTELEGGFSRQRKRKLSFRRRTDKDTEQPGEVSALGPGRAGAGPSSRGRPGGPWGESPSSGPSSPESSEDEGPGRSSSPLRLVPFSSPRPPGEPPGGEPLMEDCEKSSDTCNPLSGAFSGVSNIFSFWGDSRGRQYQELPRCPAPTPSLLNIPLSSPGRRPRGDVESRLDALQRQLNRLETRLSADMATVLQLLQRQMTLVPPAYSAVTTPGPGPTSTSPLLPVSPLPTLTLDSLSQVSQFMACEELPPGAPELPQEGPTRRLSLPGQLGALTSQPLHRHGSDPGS

Compound	AC50 [1] [µM]	AC50 [2] [µM]	AC50 [3] [µM]	AC50 [4] [µM]	AC50 [5] [µM]	AC50 [6] [µM]	AC50 [7] [µM]	AC50 [8] [µM]	AC50 [9] [µM]
CC(C)CN(C[C@@H](O)[C@H](Cc1ccccc1)NC(=O)O[C@H]1CCOC1)S(=O)(=O)c1ccc(N)cc1	> 10	> 30	12	> 10	> 10	> 10	> 10	7.3	> 10
CC1=C(CC(=O)O)c2cc(F)ccc2/C1=C\c1ccc([S+](C)[O-])cc1 (stereo unspecified)	> 30	> 30	> 30	> 30	> 10	> 10	> 30	> 10	> 10
Cc1nnc2n1-c1ccc(Cl)cc1C(c1ccccc1)=NC2 [ALPRAZOLAM]	> 30	> 30	> 30	> 30	> 10	> 10	> 10	> 10	> 10
CNCCc1ccccn1 [BETAHISTINE]	> 30	> 30	> 30	> 30	> 30	11	> 30	> 30	> 30
CC(NC(C)(C)C)C(=O)c1cccc(Cl)c1 (stereo unspecified) [BUPROPION]	–	–	> 30	> 30	> 10	> 10	–	> 10	> 10
CCCCOC(=O)c1ccc(N)cc1 [BUTAMBEN]	0.6	> 30	> 30	> 30	> 30	> 30	> 30	> 30	> 30
CN(Cc1ccc(C(C)(C)C)cc1)Cc1cccc2ccccc12 [BUTENAFINE]	> 10	2.8	–	> 10	> 10	> 10	> 10	> 10	> 10
O=C1CN=C(c2ccccc2Cl)c2cc([N+](=O)[O-])ccc2N1 [CLONAZEPAM]	> 30	> 30	> 30	> 30	> 10	> 10	> 10	> 10	> 10
CC1CC(OC(=O)C(O)c2ccccc2)CC(C)(C)C1 (stereo unspecified) [CYCLANDELATE]	> 10	> 30	–	> 30	> 10	> 10	> 30	> 10	> 10
OCCN(CCO)c1nc(N2CCCCC2)c2nc(N(CCO)CCO)nc(N3CCCCC3)c2n1 [DIPYRIDAMOLE]	> 30	> 30	> 30	–	> 30	–	> 30	–	> 30
CCc1ccc(C(=O)C(C)CN2CCCCC2)cc1 (stereo unspecified) [EPERISONE]	> 30	1.57	> 30	> 30	> 30	1.3	> 30	> 30	2.2
CCC1(C)CC(=O)NC1=O (stereo unspecified) [ETHOSUXIMIDE]	> 10	> 30	–	> 10	> 10	–	> 10	> 10	> 10
CCOC(=O)C1=C(C)NC(C)=C(C(=O)OC)C1c1cccc(Cl)c1Cl (stereo unspecified) [FELODIPINE]	> 30	> 30	> 30	28	0.0204	> 10	13.3	> 10	> 10
CC(=O)OCC(=O)[C@@]1(O)CC[C@H]2[C@@H]3CCC4=CC(=O)CC[C@]4(C)[C@@]3(F)[C@@H](O)C[C@@]21C [FLUDROCORTISONE ACETATE]	> 30	> 30	> 30	> 30	> 30	> 30	> 30	> 30	> 30
CC(=O)[C@@]1(O)CC[C@H]2[C@@H]3C[C@H](C)C4=CC(=O)C=C[C@]4(C)[C@@]3(F)[C@@H](O)C[C@@]21C [FLUOROMETHOLONE]	> 10	> 30	> 30	> 10	> 10	> 10	> 10	> 10	> 10
CN1C2CCCC1CC(NC(=O)c1nn(C)c3ccccc13)C2 (stereo unspecified) [GRANISETRON]	> 30	–	> 30	> 30	> 10	> 10	> 10	> 10	> 10
N=C(N)NC(=O)Cc1c(Cl)cccc1Cl [GUANFACINE]	> 30	> 30	–	> 30	> 30	–	> 30	> 10	> 30
CC(=O)N1CCN(c2ccc(OCC3COC(Cn4ccnc4)(c4ccc(Cl)cc4Cl)O3)cc2)CC1 (stereo unspecified) [KETOCONAZOLE]	> 10	–	–	35.2	> 10	> 10	> 30	> 10	–
CN1CCC(=C2c3ccccc3CC(=O)c3sccc32)CC1 [KETOTIFEN]	> 10	1.5	15	> 10	> 10	–	> 10	> 10	1.9
CCN(CC)CC(=O)Nc1c(C)cccc1C [LIDOCAINE]	> 30	–	–	> 30	–	–	–	> 10	–
Nc1cc(N2CCCCC2)nc(N)[n+]1[O-] [MINOXIDIL]	> 30	–	> 30	–	> 10	> 10	> 30	> 10	> 10
COc1nc(C)nc(Cl)c1N=C1NCCN1 [MOXONIDINE]	> 30	> 30	–	–	> 30	> 30	> 30	> 30	> 30
Nc1ccc(S(=O)(=O)Nc2ncccn2)cc1 [SULFADIAZINE]	> 10	> 30	–	> 10	> 10	> 10	> 10	> 10	> 10
Cc1cccc(Nc2ccncc2S(=O)(=O)NC(=O)NC(C)C)c1 [TORSEMIDE]	> 10	> 30	–	> 10	> 10	–	> 10	> 30	> 10
